Columns and labels:
[1] = single ascending dose study in healthy Japanese adults; cited from earlier work
[2] = Phase I clinical study Part 1, single administration, pharmacokinetics and safety; format: in vivo, human; conditions: human, plasma, oral; in any dose group, single administration
Protocol: Test Example 3-1 Phase I Clinical Study
All studies were conducted based on Good Clinical Practice (GCP). The phase I clinical study was composed of Part 1 to Part 7, and in Part 1, the safety, tolerability, and pharmacokinetics were confirmed when the fumaric acid cocrystal Form I crystal of the compound represented by Formula (I) was administered once and when it was administered repeatedly.
The subjects who were determined to be eligible by the screening examination were randomly assigned to either the active drug group (see the following table for the dose of the fumaric acid cocrystal Form I crystal of the compound represented by Formula (I)) or the placebo group on the day before the day of administration of the investigational new drug (Day −1). On Day 1, the investigational new drug (active drug or placebo) was administered once in the fasted state.

Structure (SMILES): Cn1cnc(Cn2c(=O)[nH]/c(=N\c3cc4cn(C)nc4cc3Cl)n(Cc3cc(F)c(F)cc3F)c2=O)n1 [compound represented by Formula (I), (6E)-6-[(6-chloro-2-methyl-2H-indazol-5-yl)imino]-3-[(1-methyl-1H-1,2,4-triazol-3-yl)methyl]-1-[(2,4,5-trifluorophenyl)methyl]-1,3,5-triazinane-2,4-dione]
- Safety and tolerability [1]: good safety and tolerability were confirmed
- half-life [2]: > 40 h
